Key:
786-0 = experiment: NCI 60 cell line panel screening; format: cell-based; conditions: Homo sapiens, Renal Cancer, read-out: Growth Inhibition (GI50)
From the text: (§1) Compound 3-(2-aminoethyl)-5-(3-cyclohexylpropylidene)thiazolidine-2,4-dione was screened at five concentrations in National Cancer Institute (NCI) 60-cell line panel according to NCI's protocol for growth inhibition.

A549/ATCC = experiment: NCI 60 cell line panel screening; format: cell-based; conditions: Homo sapiens, Non-Small Cell Lung Cancer, read-out: Growth Inhibition (GI50)
From the text: as §1

CAKI-1 = experiment: NCI 60 cell line panel screening; format: cell-based; conditions: Homo sapiens, Renal Cancer, read-out: Growth Inhibition (GI50)
From the text: as §1

DU-145 = experiment: NCI 60 cell line panel screening; format: cell-based; conditions: Homo sapiens, Prostate Cancer, read-out: Growth Inhibition (GI50)
From the text: as §1

HCT-15 = experiment: NCI 60 cell line panel screening; format: cell-based; conditions: Homo sapiens, Colon Cancer, read-out: Growth Inhibition (GI50)
From the text: as §1

HOP-92 = experiment: NCI 60 cell line panel screening; format: cell-based; conditions: Homo sapiens, Non-Small Cell Lung Cancer, read-out: Growth Inhibition (GI50)
From the text: as §1

HS 578T = experiment: NCI 60 cell line panel screening; format: cell-based; conditions: Homo sapiens, Breast Cancer, read-out: Growth Inhibition (GI50)
From the text: as §1

HT29 = experiment: NCI 60 cell line panel screening; format: cell-based; conditions: Homo sapiens, HT-29, Colon Cancer, read-out: Growth Inhibition (GI50)
From the text: as §1

K-562 = experiment: NCI 60 cell line panel screening; format: cell-based; conditions: Homo sapiens, K562, Leukemia, read-out: Growth Inhibition (GI50)
From the text: as §1

LOX IMVI = experiment: NCI 60 cell line panel screening; format: cell-based; conditions: Homo sapiens, Melanoma, read-out: Growth Inhibition (GI50)
From the text: as §1

MDA-MB-435 = experiment: NCI 60 cell line panel screening; format: cell-based; conditions: Homo sapiens, Melanoma, read-out: Growth Inhibition (GI50)
From the text: as §1

MDA-MB-468 = experiment: NCI 60 cell line panel screening; format: cell-based; conditions: Homo sapiens, Breast Cancer, read-out: Growth Inhibition (GI50)
From the text: as §1

NCI-H322M = experiment: NCI 60 cell line panel screening; format: cell-based; conditions: Homo sapiens, Non-Small Cell Lung Cancer, read-out: Growth Inhibition (GI50)
From the text: as §1

OVCAR-8 = experiment: NCI 60 cell line panel screening; format: cell-based; conditions: Homo sapiens, Ovarian Cancer, read-out: Growth Inhibition (GI50)
From the text: as §1

PC-3 = experiment: NCI 60 cell line panel screening; format: cell-based; conditions: Homo sapiens, Prostate Cancer, read-out: Growth Inhibition (GI50)
From the text: as §1

SF-268 = experiment: NCI 60 cell line panel screening; format: cell-based; conditions: Homo sapiens, CNS Cancer, read-out: Growth Inhibition (GI50)
From the text: as §1

SF-539 = experiment: NCI 60 cell line panel screening; format: cell-based; conditions: Homo sapiens, CNS Cancer, read-out: Growth Inhibition (GI50)
From the text: as §1

SK-MEL-5 = experiment: NCI 60 cell line panel screening; format: cell-based; conditions: Homo sapiens, Melanoma, read-out: Growth Inhibition (GI50)
From the text: as §1

SK-OV-3 = experiment: NCI 60 cell line panel screening; format: cell-based; conditions: Homo sapiens, Ovarian Cancer, read-out: Growth Inhibition (GI50)
From the text: as §1

SN12C = experiment: NCI 60 cell line panel screening; format: cell-based; conditions: Homo sapiens, Renal Cancer, read-out: Growth Inhibition (GI50)
From the text: as §1

SW-620 = experiment: NCI 60 cell line panel screening; format: cell-based; conditions: Homo sapiens, Colon Cancer, read-out: Growth Inhibition (GI50)
From the text: as §1

T-47D = experiment: NCI 60 cell line panel screening; format: cell-based; conditions: Homo sapiens, T47D, Breast Cancer, read-out: Growth Inhibition (GI50)
From the text: as §1

UACC-62 = experiment: NCI 60 cell line panel screening; format: cell-based; conditions: Homo sapiens, Melanoma, read-out: Growth Inhibition (GI50)
From the text: as §1

UO-31 = experiment: NCI 60 cell line panel screening; format: cell-based; conditions: Homo sapiens, Renal Cancer, read-out: Growth Inhibition (GI50)
From the text: as §1

BTK = target: T1, BTK (Homo sapiens, UniProt Q06187); experiment: In vitro kinase screening; format: biochemical; conditions: 10 μM concentration
T1 construct: Caliper Life Sciences (screening service)
Experimental: (§2) Formula II [3-(2-aminoethyl)-5-(3-cyclohexylpropylidene)thiazolidine-2,4-dione] was screened against a panel of kinases at 10 μM concentration by Caliper Life Sciences according to their established protocol.

CAMK2 = experiment: In vitro kinase screening; format: biochemical; conditions: CAMK2, 10 μM concentration
Experimental: as §2

CAMk4 = target: T2, CAMk4 (Homo sapiens, UniProt Q16566); experiment: In vitro kinase screening; format: biochemical; conditions: CAMk4, 10 μM concentration
T2 construct: Caliper Life Sciences (screening service)
Experimental: as §2

CDK2 = target: T3, CDK2 (Homo sapiens, UniProt P24941); experiment: In vitro kinase screening; format: biochemical; conditions: CDK2, 10 μM concentration
T3 construct: Caliper Life Sciences (screening service)
Experimental: as §2

CHK2 = target: T4, CHK2 (Homo sapiens, UniProt O96017); experiment: In vitro kinase screening; format: biochemical; conditions: CHK2, 10 μM concentration
T4 construct: Caliper Life Sciences (screening service)
T4 sequence (O96017 whole entry): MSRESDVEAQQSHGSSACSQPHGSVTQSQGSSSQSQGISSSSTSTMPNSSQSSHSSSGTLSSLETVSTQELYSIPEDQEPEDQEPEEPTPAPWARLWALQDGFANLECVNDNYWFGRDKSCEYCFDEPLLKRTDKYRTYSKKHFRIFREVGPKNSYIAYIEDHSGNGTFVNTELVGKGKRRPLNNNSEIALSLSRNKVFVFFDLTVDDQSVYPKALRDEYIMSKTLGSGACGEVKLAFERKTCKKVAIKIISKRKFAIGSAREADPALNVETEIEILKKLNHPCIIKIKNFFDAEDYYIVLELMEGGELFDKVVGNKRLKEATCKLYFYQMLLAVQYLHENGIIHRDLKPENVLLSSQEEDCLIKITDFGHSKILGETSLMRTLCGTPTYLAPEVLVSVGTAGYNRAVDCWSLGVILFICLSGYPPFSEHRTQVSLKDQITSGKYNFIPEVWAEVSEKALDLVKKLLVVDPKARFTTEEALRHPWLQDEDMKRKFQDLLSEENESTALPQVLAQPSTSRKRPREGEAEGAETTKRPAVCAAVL
Experimental: as §2

FLT3 = target: T5, FLT3 (Homo sapiens, UniProt P36888); experiment: In vitro kinase screening; format: biochemical; conditions: FLT3, 10 μM concentration
T5 construct: Caliper Life Sciences (screening service)
T5 sequence (P36888 27-993): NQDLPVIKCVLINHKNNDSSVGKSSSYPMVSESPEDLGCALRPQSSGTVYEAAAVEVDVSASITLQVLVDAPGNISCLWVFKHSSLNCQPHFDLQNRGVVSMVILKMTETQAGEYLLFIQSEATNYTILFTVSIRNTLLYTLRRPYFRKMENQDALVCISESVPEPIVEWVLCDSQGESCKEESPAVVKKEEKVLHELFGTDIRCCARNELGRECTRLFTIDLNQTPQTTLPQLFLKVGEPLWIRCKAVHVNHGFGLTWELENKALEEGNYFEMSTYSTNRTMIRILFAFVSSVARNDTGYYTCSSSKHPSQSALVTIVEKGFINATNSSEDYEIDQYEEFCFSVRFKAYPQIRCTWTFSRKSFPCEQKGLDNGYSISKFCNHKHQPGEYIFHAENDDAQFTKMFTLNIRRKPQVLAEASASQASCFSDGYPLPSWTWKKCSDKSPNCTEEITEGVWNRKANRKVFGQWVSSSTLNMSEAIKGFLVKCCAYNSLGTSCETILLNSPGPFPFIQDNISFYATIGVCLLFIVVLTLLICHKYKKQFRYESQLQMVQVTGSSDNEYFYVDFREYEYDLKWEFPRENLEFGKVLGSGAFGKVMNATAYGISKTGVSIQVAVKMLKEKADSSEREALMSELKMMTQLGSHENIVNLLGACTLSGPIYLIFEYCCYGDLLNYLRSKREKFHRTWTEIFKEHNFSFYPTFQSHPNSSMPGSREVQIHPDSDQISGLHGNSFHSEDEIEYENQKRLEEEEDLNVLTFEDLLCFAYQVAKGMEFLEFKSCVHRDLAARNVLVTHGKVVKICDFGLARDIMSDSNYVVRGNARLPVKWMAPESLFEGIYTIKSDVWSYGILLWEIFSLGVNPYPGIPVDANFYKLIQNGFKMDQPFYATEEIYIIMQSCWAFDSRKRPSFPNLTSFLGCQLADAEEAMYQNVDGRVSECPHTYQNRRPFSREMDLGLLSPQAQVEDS
Experimental: as §2

FYN = target: T6, FYN (Homo sapiens, UniProt P06241); experiment: In vitro kinase screening; format: biochemical; conditions: 10 μM concentration
T6 construct: Caliper Life Sciences (screening service)
T6 sequence (P06241 whole entry): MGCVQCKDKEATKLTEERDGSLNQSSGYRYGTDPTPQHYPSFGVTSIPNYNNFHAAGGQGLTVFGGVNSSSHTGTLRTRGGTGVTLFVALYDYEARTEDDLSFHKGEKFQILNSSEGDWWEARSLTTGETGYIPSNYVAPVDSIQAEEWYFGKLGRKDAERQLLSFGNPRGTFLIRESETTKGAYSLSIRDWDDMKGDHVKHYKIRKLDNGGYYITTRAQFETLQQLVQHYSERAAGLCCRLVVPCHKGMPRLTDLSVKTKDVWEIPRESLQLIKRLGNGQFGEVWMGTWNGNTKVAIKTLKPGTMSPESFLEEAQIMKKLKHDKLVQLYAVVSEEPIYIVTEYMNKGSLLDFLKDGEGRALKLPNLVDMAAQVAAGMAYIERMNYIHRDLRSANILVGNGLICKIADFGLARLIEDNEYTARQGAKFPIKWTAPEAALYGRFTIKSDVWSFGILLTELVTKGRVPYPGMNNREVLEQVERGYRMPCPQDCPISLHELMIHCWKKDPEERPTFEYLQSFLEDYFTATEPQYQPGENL
Experimental: as §2

MARK1 = target: T7, MARK1 (Homo sapiens, UniProt Q9P0L2); experiment: In vitro kinase screening; format: biochemical; conditions: MARK1, 10 μM concentration
T7 construct: Caliper Life Sciences
Experimental: as §2

MST2 = target: T8, MST2 (Homo sapiens, UniProt Q13188); experiment: In vitro kinase screening; format: biochemical; conditions: MST2, 10 μM concentration
T8 construct: Caliper Life Sciences
T8 sequence (Q13188 whole entry, species assumed): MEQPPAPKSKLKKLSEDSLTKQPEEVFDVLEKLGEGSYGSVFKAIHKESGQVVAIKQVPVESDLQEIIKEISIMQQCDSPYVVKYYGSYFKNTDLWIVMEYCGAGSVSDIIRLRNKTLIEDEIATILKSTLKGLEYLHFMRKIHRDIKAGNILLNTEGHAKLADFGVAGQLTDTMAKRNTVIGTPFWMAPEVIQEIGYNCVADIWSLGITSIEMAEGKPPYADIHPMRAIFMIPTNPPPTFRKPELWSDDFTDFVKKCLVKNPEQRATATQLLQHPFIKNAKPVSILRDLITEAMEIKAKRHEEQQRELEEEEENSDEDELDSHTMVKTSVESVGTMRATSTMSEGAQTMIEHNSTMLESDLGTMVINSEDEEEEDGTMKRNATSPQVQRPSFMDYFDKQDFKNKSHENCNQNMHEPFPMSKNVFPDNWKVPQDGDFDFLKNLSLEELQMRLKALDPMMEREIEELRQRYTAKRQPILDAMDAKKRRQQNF
Experimental: as §2

PIM2 = target: T9, PIM2 (Homo sapiens, UniProt Q9P1W9); experiment: In vitro kinase screening; format: biochemical; conditions: PIM2, 10 μM concentration
T9 construct: Caliper Life Sciences
T9 sequence (Q9P1W9 whole entry, species assumed): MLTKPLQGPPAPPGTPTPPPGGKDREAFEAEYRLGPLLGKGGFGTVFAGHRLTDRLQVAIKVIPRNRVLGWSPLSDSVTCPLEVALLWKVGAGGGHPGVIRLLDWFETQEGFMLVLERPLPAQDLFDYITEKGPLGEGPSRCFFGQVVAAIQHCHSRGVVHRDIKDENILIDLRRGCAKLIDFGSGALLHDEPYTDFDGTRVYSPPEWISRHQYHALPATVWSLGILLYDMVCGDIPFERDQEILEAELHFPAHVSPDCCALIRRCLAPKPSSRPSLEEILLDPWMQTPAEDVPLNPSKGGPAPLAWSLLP
Experimental: as §2

PKA = target: T10, PKA (Homo sapiens, UniProt P17612); experiment: In vitro kinase screening; format: biochemical; conditions: 10 μM concentration
T10 construct: Caliper Life Sciences
Experimental: as §2

PKCb2 = target: T11, PKCb2 (Homo sapiens, UniProt P05771); experiment: In vitro kinase screening; format: biochemical; conditions: PKCb2, 10 μM concentration
T11 construct: Caliper Life Sciences
T11 sequence (P05771 1-673 isoform P05771-2): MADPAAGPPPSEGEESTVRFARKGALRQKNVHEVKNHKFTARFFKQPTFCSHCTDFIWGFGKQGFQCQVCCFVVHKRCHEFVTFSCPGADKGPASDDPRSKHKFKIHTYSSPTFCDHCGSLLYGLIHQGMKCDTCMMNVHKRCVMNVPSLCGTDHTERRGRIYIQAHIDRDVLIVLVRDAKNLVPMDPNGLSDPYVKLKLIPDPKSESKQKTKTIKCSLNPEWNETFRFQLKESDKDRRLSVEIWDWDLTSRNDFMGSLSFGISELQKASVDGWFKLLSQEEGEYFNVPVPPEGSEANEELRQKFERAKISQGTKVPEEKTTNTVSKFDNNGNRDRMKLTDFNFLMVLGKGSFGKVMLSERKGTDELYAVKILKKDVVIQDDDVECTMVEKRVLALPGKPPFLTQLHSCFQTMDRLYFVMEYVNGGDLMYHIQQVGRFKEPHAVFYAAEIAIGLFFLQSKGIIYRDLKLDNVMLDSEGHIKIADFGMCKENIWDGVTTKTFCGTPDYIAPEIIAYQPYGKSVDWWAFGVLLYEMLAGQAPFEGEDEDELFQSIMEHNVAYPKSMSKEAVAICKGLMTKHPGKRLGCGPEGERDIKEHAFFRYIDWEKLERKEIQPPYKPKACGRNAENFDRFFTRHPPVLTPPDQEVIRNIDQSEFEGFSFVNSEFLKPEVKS
Experimental: as §2

SGK1 = target: T12, SGK1 (Homo sapiens, UniProt O00141); experiment: In vitro kinase screening; format: biochemical; conditions: SGK1, 10 μM concentration
T12 construct: Caliper Life Sciences
T12 sequence (O00141 whole entry, species assumed): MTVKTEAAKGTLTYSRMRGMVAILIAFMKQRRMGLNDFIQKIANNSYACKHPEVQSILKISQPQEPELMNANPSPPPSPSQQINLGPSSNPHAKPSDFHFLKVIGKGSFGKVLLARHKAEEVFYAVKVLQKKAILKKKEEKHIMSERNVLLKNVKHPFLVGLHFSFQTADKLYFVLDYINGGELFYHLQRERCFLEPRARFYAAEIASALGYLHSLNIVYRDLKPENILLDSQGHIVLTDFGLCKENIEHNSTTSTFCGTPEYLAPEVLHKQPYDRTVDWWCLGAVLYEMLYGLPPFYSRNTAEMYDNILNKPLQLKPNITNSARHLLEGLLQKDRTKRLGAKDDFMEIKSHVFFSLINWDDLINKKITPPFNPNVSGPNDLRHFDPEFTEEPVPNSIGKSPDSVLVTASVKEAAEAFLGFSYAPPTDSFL
Experimental: as §2

p38a = target: T13, p38a (Homo sapiens, UniProt Q16539); experiment: In vitro kinase screening; format: biochemical; conditions: 10 μM concentration
T13 construct: Caliper Life Sciences
T13 sequence (Q16539 whole entry): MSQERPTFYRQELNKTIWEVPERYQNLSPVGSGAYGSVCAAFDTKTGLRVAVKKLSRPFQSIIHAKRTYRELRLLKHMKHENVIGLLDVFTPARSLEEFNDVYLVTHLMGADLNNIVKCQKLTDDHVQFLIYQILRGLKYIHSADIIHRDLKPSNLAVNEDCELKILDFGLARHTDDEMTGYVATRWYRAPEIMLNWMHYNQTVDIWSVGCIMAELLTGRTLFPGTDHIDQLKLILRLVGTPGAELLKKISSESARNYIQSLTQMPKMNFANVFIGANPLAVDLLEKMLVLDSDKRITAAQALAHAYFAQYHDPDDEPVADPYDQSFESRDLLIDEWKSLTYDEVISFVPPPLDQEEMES
Experimental: as §2

p70S6K = target: T14, p70S6K (Homo sapiens, UniProt P23443); experiment: In vitro kinase screening; format: biochemical; conditions: 10 μM concentration
T14 construct: Caliper Life Sciences
T14 sequence (P23443 whole entry): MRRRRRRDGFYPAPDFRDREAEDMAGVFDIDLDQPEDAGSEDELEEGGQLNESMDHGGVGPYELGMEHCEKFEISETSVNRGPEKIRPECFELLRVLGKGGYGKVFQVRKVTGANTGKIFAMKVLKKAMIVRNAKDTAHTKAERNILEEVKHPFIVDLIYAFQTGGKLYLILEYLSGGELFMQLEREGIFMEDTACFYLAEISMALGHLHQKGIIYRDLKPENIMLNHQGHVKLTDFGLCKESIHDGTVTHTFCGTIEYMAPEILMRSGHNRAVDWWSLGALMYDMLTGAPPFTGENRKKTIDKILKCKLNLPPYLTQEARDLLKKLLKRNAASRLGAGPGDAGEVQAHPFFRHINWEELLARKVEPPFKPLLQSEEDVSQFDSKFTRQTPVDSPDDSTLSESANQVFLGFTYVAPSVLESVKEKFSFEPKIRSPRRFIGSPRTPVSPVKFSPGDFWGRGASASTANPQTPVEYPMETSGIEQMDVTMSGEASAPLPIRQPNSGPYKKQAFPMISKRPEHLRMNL
Experimental: as §2

Structure (SMILES): NCCN1C(=O)S/C(=C\CCC2CCCCC2)C1=O [Example 4, 3-(2-aminoethyl)-5-(3-cyclohexylpropylidene)thiazolidine-2,4-dione]
- GI50 (786-0): 1.72 µM
- GI50 (A549/ATCC): 2.5 µM
- GI50 (CAKI-1): 1.64 µM
- GI50 (DU-145): 1.76 µM
- GI50 (HCT-15): 2.47 µM
- GI50 (HOP-92): 5.41 µM
- GI50 (HS 578T): 2.49 µM
- GI50 (HT29): 2.04 µM
- GI50 (K-562): 2.59 µM
- GI50 (LOX IMVI): 1.4 µM
- GI50 (MDA-MB-435): 1.85 µM
- GI50 (MDA-MB-468): 1.86 µM
- GI50 (NCI-H322M): 5.1 µM
- GI50 (OVCAR-8): 1.89 µM
- GI50 (PC-3): 1.91 µM
- GI50 (SF-268): 2.23 µM
- GI50 (SF-539): 1.83 µM
- GI50 (SK-MEL-5): 1.7 µM
- GI50 (SK-OV-3): 4.04 µM
- GI50 (SN12C): 2.15 µM
- GI50 (SW-620): 1.85 µM
- GI50 (T-47D): 2.04 µM
- GI50 (UACC-62): 2.14 µM
- GI50 (UO-31): 1.56 µM
- inhibition at 10 µM (BTK): 12%
- % Inhibition (CAMK2): 60%
- inhibition at 10 µM (CAMk4): 71%
- inhibition at 10 µM (CDK2): -2%
- inhibition at 10 µM (CHK2): 8%
- inhibition at 10 µM (FLT3): 38%
- inhibition at 10 µM (FYN): 0%
- inhibition at 10 µM (MARK1): 0%
- inhibition at 10 µM (MST2): -3%
- inhibition at 10 µM (PIM2): 38%
- inhibition at 10 µM (PKA): -3%
- inhibition at 10 µM (PKCb2): 16%
- inhibition at 10 µM (SGK1): 14%
- inhibition at 10 µM (p38a): -13%
- inhibition at 10 µM (p70S6K): 5%

Source: patent US20110166191A1, “3-(2-amino-ethyl)-5-(3-cyclohexyl-propylidene)-thiazolidine-2,4-dione and its derivatives as multiple signaling pathway inhibitors and for the treatment of cancer” (priority 2010, published 2011)
